Data on 14 molecules can be found in patent US7153869B2, “Substituted amino acids as erythropoietin mimetics” (priority 1998, dated 2006).

Like-named read-outs stand apart in the source and are kept apart here.

The experiment addresses T1, EBP-Ig (N-terminal 225 amino acids of the human EPO receptor joined to an Ig heavy chain) (Homo sapiens, UniProt P19235).
T1 construct: Ig heavy chain (fusion partner); made in house; host or cells: NSO cells (secreted into conditioned media)
T1 sequence (P19235 25-250 limits assumed): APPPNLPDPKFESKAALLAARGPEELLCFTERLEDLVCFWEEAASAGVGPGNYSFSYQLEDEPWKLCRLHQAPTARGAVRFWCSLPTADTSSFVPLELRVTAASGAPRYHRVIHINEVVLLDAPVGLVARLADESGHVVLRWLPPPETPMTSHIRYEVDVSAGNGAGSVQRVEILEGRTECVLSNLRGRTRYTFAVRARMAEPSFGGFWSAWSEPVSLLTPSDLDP
The experiment is described as follows: Inhibition of [125I]EPO binding to immobilized EBP-Ig (EPO binding protein-Ig), scintillation Flash plate competition assay. The settings on record: for % inh @ 50 μM (Inhibition of EPO binding to EBP-Ig): 50 μM test compound, average % inhibition; for % inh @ 50 μM (Inhibition of EPO binding to EBP-Ig) / IC30 μM (Inhibition of EPO binding to EBP-Ig) / IC50: 0.5 nM [125I]EPO; for IC30 μM (Inhibition of EPO binding to EBP-Ig): 0–500 μM test compound; for IC50: read-out: IC50, μM (Inhibition of EPO binding to EBP-Ig), concentration reducing corrected total binding to 50%.

In the case of `CC(C)(CC(=O)O)CC(=O)NCCCCC(C(=O)NCCCCCCCCCCCCNC(=O)C(CCCCNC(=O)CC(C)(C)CC(=O)O)N(Cc1ccc(OCc2ccccc2)cc1)Cc1ccc(OCc2ccccc2)cc1)N(Cc1ccc(OCc2ccccc2)cc1)Cc1ccc(OCc2ccccc2)cc1` (stereo not drawn) [compound 268], the “% inh @ 50 μM (Inhibition of EPO binding to EBP-Ig)” value is on record as 40%. Moreover, the “EPO/EBP-Ig % inh @ 50 μM” value (50 μM compound, Table 13) is given as 40%.

Broadly, the IC50 is the concentration that inhibits the measured activity by half. Regarding `O=C(O)CCCC(=O)NCCCCC(C(=O)NCCCCCCCCCCCCNC(=O)C(CCCCNC(=O)CCCC(=O)O)N(Cc1ccc(OCc2ccccc2)cc1)Cc1ccc(OCc2ccccc2)cc1)N(Cc1ccc(OCc2ccccc2)cc1)Cc1ccc(OCc2ccccc2)cc1` (stereo not drawn) [compound 269], the “IC30 μM (Inhibition of EPO binding to EBP-Ig)” value was 8 µM and the IC50 amounted to 85 µM.

Regarding `O=C(O)CCC(=O)NCCCCC(C(=O)NCCCCCCCCCCCCNC(=O)C(CCCCNC(=O)CCC(=O)O)N(Cc1ccc(OCc2ccccc2)cc1)Cc1ccc(OCc2ccccc2)cc1)N(Cc1ccc(OCc2ccccc2)cc1)Cc1ccc(OCc2ccccc2)cc1` (stereo not drawn) [compound 270], the “IC30 μM (Inhibition of EPO binding to EBP-Ig)” value came to 7 µM, the “% inh @ 50 μM (Inhibition of EPO binding to EBP-Ig)” value is recorded as 56% and the IC50 amounted to 100 µM. Besides, the “EPO/EBP-Ig % inh @ 50 μM” value (50 μM compound, Table 13) is 56%.

As for `O=C(O)CCC(=O)NCCCCC(C(=O)NCCCOCCOCCOCCCNC(=O)C(CCCCNC(=O)CCC(=O)O)N(Cc1ccc(OCc2ccccc2)cc1)Cc1ccc(OCc2ccccc2)cc1)N(Cc1ccc(OCc2ccccc2)cc1)Cc1ccc(OCc2ccccc2)cc1` (stereo not drawn) [compound 271], the “IC30 μM (Inhibition of EPO binding to EBP-Ig)” value turned out to be 2 µM, the “% inh @ 50 μM (Inhibition of EPO binding to EBP-Ig)” value was 77% and the IC50 came out at 7 µM. For the same molecule, where the note is “50 μM compound, Table 13”, the “EPO/EBP-Ig % inh @ 50 μM” value came out at 77%.

On to `O=C(O)CCCC(=O)NCCCCC(C(=O)NCCCOCCOCCOCCCNC(=O)C(CCCCNC(=O)CCCC(=O)O)N(Cc1ccc(OCc2ccccc2)cc1)Cc1ccc(OCc2ccccc2)cc1)N(Cc1ccc(OCc2ccccc2)cc1)Cc1ccc(OCc2ccccc2)cc1` (stereo not drawn) [compound 272], for which the “IC30 μM (Inhibition of EPO binding to EBP-Ig)” value stood at 5 µM and the half-maximal inhibitory concentration (IC50) came out at 10 µM.

For `NCCCCC(C(=O)O)N(Cc1cccc(Oc2ccccc2)c1)C(=O)C=Cc1cccc(OCc2ccccc2)c1` (stereo not drawn) [compound 286], the “IC30 μM (Inhibition of EPO binding to EBP-Ig)” value stood at 35 µM and the IC50 is 65 µM. Moreover, the inhibition at 50 µM (read-out: % inh @ 50 μM (Inhibition of EPO binding to EBP-Ig)) is 46%. The inhibition at 50 µM (read-out: EPO/EBP-Ig % inh @ 50 μM, 50 μM compound, Table 15) was determined as 46%.

For the molecule `Cc1ccc(Oc2cccc(/C=C/C(=O)N(Cc3cccc(Oc4ccccc4)c3)C(CCCCN)C(=O)O)c2)cc1` (stereo not drawn) [compound 287], the “% inh @ 50 μM (Inhibition of EPO binding to EBP-Ig)” value amounted to 36%. Further, the “EPO/EBP-Ig % inh @ 50 μM” value (50 μM compound, Table 15) is 36%.

On to `CC(C)(C)c1ccc(Oc2cccc(/C=C/C(=O)N(Cc3cccc(Oc4ccccc4)c3)C(CCCCN)C(=O)O)c2)cc1` (stereo not drawn) [compound 288], for which the “EPO/EBP-Ig % inh @ 50 μM” value (50 μM compound, Table 15) is recorded as 27%.

As to `NCCCCC(C(=O)O)N(Cc1cccc(Oc2ccccc2)c1)C(=O)/C=C/c1ccc(Oc2ccccc2)cc1` (stereo not drawn) [compound 289], for the setting “50 μM compound, Table 15”, the “EPO/EBP-Ig % inh @ 50 μM” value is given as 20%.

On to `COC(=O)[C@H](COC(C)(C)C)N(C/C=C/c1ccc(-c2ccccc2)cc1)C/C=C/c1ccc(-c2ccccc2)cc1` [compound 291], for which, for the setting “50 μM compound, Table 16A”, the “EPO/EBP-Ig % inh @ 50 μM” value was 17%.

On to `COC(=O)[C@H](COC(C)(C)C)N(C/C=C/c1cccc(Oc2cccc(C(F)(F)F)c2)c1)C/C=C/c1cccc(Oc2cccc(C(F)(F)F)c2)c1` [compound 292], for which the “EPO/EBP-Ig % inh @ 50 μM” value (50 μM compound, Table 16A) is 11%.

With `COC(=O)[C@H](COC(C)(C)C)N(C/C=C/c1cccc(Oc2ccc(Cl)c(Cl)c2)c1)C/C=C/c1cccc(Oc2ccc(Cl)c(Cl)c2)c1` [compound 293], the “EPO/EBP-Ig % inh @ 50 μM” value (50 μM compound, Table 16A) was determined as 14%.

Consider `COC(=O)[C@H](COC(C)(C)C)N(C/C=C/c1cccc(Oc2ccc(C(C)(C)C)cc2)c1)C/C=C/c1cccc(Oc2ccc(C(C)(C)C)cc2)c1` [compound 294], for which the “EPO/EBP-Ig % inh @ 50 μM” value (50 μM compound, Table 16A) is on record as 9%.

Regarding `CC(=O)O.COC(=O)[C@H](CO)N(C/C=C/c1ccc(-c2ccccc2)cc1)C/C=C/c1ccc(-c2ccccc2)cc1` [compound 295], the “EPO/EBP-Ig % inh @ 50 μM” value (50 μM compound, Table 16A) was determined as 10%.
